From patent publication US11478474B2, “2-(3′-(hydroxymethyl)-1-methyl-5-((5-(2-methyl-4-(oxetan-3-yl)piperazin-1-yl)pyridin-2-yl)amino)-6-oxo-1,6-dihydro-[3,4′-bipyridin]-2′-yl)-7,7-dimethyl-7,8-dihydro-2H-cyclopenta[4,5]pyrrolo[1,2-a]pyrazin-1(6H)-one as a BTK inhibitor” (HUTCHISON MEDIPHARMA LIMITED, priority 2020, dated 2022)

What was measured:
[1] = In vivo efficacy of the inhibitory effect on BTK target (anti-IgD antibody-induced B cell activation in mice whole blood after in vivo administration); conditions: female, C57BL/6, mouse; 20 mg/kg single oral gavage, 16 h, mice plasma; read-out: Drug concentration in plasma
Procedure: (§1) Objects: B cells in mice whole blood were induced and activated by the anti-IgD antibody, and the inhibitory effect of the compound of the present invention on B cell activation in vivo was studied, so as to determine the inhibitory effect of the compound of the present invention on the BTK target in vivo.
(§2) Methods: C57BL/6 mice (female, 18-20 g, purchased from Shanghai Lingchang Biotechnology Co., Ltd.) were grouped according to Table 2.
(§3) The animals of each group were administered, then were placed in CO2 for anesthesia at designated time points, blood samples were taken from […] via retro-orbital bleeding, and heparin was used for anticoagulation; 90 μL of whole blood was taken from mice of each group, and added to a 96 well culture plate, and anti-mouse IgD antibody (BIO-RAD, Cat #MCA4693) was added to each well to a final concentration of 0.01 μg/μL (respectively for the each drug-treated group and anti-IgD antibody-inducted vehicle group); in addition, 90 μL of whole blood of mice in the vehicle group was taken and added to the 96-well culture plate, and PBS (phosphate buffer, GIBCO, Cat #C20012500BT) was added to each well to a final concentration of 0.01 μg/μL (namely, the vehicle control group); Each group was mixed well and incubated in a 37° C./5% CO2 incubator for 4 hours. In addition, the blood of mice in the drug-treated group was centrifuged to separate plasma for blood concentration analysis.
(§4) Calculation for B Cell Activation Ratio: B cell activation ratio=percentage of CD69+CD19+double positive B cells/percentage of CD19+single positive B cells
(§5) Calculation for Inhibition Ratio: Inhibition ratio=(percentage of B cell activation ratio in anti-IgD antibody-induced vehicle group-percentage of B cell activation ratio in drug-treated group)/(percentage of B cell activation ratio in anti-IgD antibody-induced vehicle group-percentage of B cell activation ratio in vehicle control group)×100%
(§6) All data are represented by mean±standard error. For the comparison between each drug-treated group and the anti-IgD antibody-induced vehicle group, p value was calculated by Graphpad Prism using one-way ANOVA analysis of variance and Dunnett's test, and for the comparison between each drug-treated group, p value was calculated by using unpaired t test.

[2] = test system: B cell activation in mouse whole blood induced by anti-IgD antibodies; assay: as above
Procedure: as §1, §2, §3, §4, §5, §6

Cn1cc(-c2ccnc(-n3ccn4c5c(cc4c3=O)CC(C)(C)C5)c2CO)cc(Nc2ccc(N3CCN4CCOCC4C3)cn2)c1=O (racemic) [Compound 232]
concentration at 16 h [1]: 76.2 ± 41.7 ng/mL | Inhibition ratio (%) ([2]; 20 mg/kg single oral gavage, 16 h): 89% | B cell activation ratio (the proportion of activated B cells to total B cells) ([2]; 20 mg/kg single oral gavage, 16 h, mean ± standard error): 8.4 ± 1.9^***& | inhibition ratio on B cell activation ([2]; 20 mg/kg, 16 hours after administration, mice whole blood, anti-IgD antibody): 89%
